The record followed here is article PMC8533642 (Journal of medicinal chemistry, 2021).

Molecules are shown by their SMILES. Square brackets hold non-standard residues; d marks the D form. Peptide text beside a SMILES is read from it. Phe(4-I) = N[C@@H](Cc1ccc(I)cc1)C(=O)O; dPhe(4-I) = N[C@H](Cc1ccc(I)cc1)C(=O)O; 2Nal = N[C@@H](Cc1ccc2ccccc2c1)C(=O)O; d2Nal = N[C@H](Cc1ccc2ccccc2c1)C(=O)O

Experiment [1] has as its target mMC3R (Mus musculus, UniProt P33033). In words: AlphaScreen cAMP agonist assay, HEK293 cells stably expressing mMC3R. The experiment is classed as cell-based. The following applies: at 100 μM. On the technique in general: In Alpha technology, singlet oxygen from a donor bead excites a nearby acceptor bead.
In experiment [2] the target is mMC5R (Mus musculus, UniProt P41149). Put plainly: AlphaScreen cAMP agonist assay, HEK293 cells stably expressing mMC5R. The experiment is classed as cell-based. The following applies: for mMC5R percent maximal stimulatory response (compared to NDP-MSH): at 100 μM; for mMC5R EC50: agonist, >100,000 = no agonist activity up to 100 μM.
Experiment [3] concerns the target mMC1R (Mus musculus, UniProt Q01727). In words: AlphaScreen cAMP agonist assay, HEK293 cells stably expressing mMC1R. The note with it: for mMC1R agonist activity in words: full agonist = 90% of maximal NDP-MSH signal; for mMC1R partial agonist percentage of receptor activation relative to NDP-MSH: partial agonists. The experiment is classed as cell-based.
The target of experiment [4] is mMC4R (Mus musculus, UniProt P56450). The note with it: mMC4R versus mMC3R antagonist potency.
Chain of mMC4R (P56450 whole entry): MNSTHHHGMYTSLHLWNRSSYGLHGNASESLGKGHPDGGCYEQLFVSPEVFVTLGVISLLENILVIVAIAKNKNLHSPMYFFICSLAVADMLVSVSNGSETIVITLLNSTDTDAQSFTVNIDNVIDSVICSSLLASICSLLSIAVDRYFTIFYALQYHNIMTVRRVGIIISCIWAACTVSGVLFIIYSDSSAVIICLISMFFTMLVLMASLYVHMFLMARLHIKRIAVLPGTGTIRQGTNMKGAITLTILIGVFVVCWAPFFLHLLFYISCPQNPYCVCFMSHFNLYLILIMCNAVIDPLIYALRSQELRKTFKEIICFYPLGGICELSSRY

Chain of mMC3R (P33033 whole entry): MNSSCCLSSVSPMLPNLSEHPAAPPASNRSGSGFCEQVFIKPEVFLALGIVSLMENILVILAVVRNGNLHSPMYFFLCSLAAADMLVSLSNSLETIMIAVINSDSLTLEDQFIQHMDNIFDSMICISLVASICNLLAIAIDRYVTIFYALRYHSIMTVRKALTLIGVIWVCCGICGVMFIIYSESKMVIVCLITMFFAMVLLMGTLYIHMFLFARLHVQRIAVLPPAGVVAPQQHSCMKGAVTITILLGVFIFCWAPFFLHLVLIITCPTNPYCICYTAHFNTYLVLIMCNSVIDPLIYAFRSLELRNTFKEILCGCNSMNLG
Chain of mMC5R (P41149 whole entry): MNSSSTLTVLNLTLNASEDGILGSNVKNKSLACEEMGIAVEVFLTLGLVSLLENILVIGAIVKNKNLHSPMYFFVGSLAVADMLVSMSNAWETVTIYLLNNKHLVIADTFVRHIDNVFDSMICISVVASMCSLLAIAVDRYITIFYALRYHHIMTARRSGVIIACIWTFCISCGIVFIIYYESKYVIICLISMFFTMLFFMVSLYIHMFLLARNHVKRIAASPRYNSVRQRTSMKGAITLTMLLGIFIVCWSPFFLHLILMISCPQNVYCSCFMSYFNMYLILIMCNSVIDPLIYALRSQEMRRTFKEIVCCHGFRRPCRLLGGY
Chain of mMC1R (Q01727 whole entry): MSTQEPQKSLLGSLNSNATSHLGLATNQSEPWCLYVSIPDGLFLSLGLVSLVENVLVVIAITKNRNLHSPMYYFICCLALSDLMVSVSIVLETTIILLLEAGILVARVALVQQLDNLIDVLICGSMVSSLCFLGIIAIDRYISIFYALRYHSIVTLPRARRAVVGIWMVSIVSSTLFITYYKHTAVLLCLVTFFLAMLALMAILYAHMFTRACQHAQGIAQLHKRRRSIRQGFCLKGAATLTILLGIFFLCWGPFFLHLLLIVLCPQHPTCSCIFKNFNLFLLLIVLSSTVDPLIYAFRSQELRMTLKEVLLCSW

Consider `CC(=O)N[C@H](Cc1ccc(I)cc1)C(=O)N[C@@H](CCCNC(=N)N)C(=O)N[C@H](Cc1ccc2ccccc2c1)C(=O)N[C@H](Cc1ccc2ccccc2c1)C(N)=O` [Peptide 38, Ac-DPhe(pI)-Arg-DNal(2’)-DNal(2’)-NH2] (Ac-[dPhe(4-I)]R[d2Nal][d2Nal]-NH2), for which the “mMC3R percent maximal stimulatory response (compared to NDP-MSH)” value in experiment [1] was determined as 45% @100μM. In addition, the “mMC5R percent maximal stimulatory response (compared to NDP-MSH)” value in experiment [2] is 20% @100μM.

For the compound `CC(=O)N[C@H](Cc1ccc2ccccc2c1)C(=O)N[C@@H](CCCNC(=N)N)C(=O)N[C@@H](Cc1ccc2ccccc2c1)C(=O)N[C@H](Cc1ccc2ccccc2c1)C(N)=O` [Peptide 23, Ac-DNal(2’)-Arg-Nal(2’)-DNal(2’)-NH2] (Ac-[d2Nal]R[2Nal][d2Nal]-NH2), in experiment [1], the “mMC3R percent maximal stimulatory response (compared to NDP-MSH)” value stood at 30% @100μM. Also, in experiment [2], the “mMC5R percent maximal stimulatory response (compared to NDP-MSH)” value stood at 25% @100μM. As for `CC(=O)N[C@H](Cc1ccc(I)cc1)C(=O)N[C@@H](CCCNC(=N)N)C(=O)N[C@H](Cc1ccc(I)cc1)C(=O)N[C@H](Cc1ccc2ccccc2c1)C(N)=O` [Peptide 44, Ac-DPhe(pI)-Arg-DPhe(pI)-DNal(2’)-NH2] (Ac-[dPhe(4-I)]R[dPhe(4-I)][d2Nal]-NH2), in experiment [3], the “mMC1R agonist activity in words” value is given as “full agonist activity”. Moreover, the “mMC3R percent maximal stimulatory response (compared to NDP-MSH)” value in experiment [1] was found to be 40% @100μM. The “mMC5R percent maximal stimulatory response (compared to NDP-MSH)” value in experiment [2] is recorded as 65% @100μM. With `CC(=O)N[C@H](Cc1ccc2ccccc2c1)C(=O)N[C@@H](CCCNC(=N)N)C(=O)N[C@H](Cc1ccc2ccccc2c1)C(=O)N[C@H](Cc1ccc2ccccc2c1)C(N)=O` [Peptide 14, Ac-DNal(2’)-Arg-DNal(2’)-DNal(2’)-NH2] (Ac-[d2Nal]R[d2Nal][d2Nal]-NH2), the “mMC1R partial agonist percentage of receptor activation relative to NDP-MSH” value in experiment [3] was determined as 85 % NDP. Further, in experiment [1], the “mMC3R percent maximal stimulatory response (compared to NDP-MSH)” value was found to be 50% @100μM. Besides, the “mMC5R percent maximal stimulatory response (compared to NDP-MSH)” value in experiment [2] turned out to be 20% @100μM. As to `CC(=O)N[C@@H](Cc1ccc(I)cc1)C(=O)N[C@@H](Cc1ccc2ccccc2c1)C(=O)N[C@@H](Cc1ccc(I)cc1)C(=O)N[C@@H](CCCNC(=N)N)C(N)=O` [Peptide 49, Ac-Phe(pI)-Nal(2’)-Phe(pI)-Arg-NH2] (Ac-[Phe(4-I)][2Nal][Phe(4-I)]R-NH2), in experiment [3], the “mMC1R agonist activity in words” value is listed as “partially stimulate”. In addition, in experiment [2], the “mMC5R EC50” value was “did not possess agonist activity”.

For the compound `CC(=O)N[C@H](Cc1ccc2ccccc2c1)C(=O)N[C@@H](CCCNC(=N)N)C(=O)N[C@@H](Cc1c[nH]c2ccccc12)C(=O)N[C@H](CCCCN)C(N)=O` [Peptide 16, Ac-DNal(2’)-Arg-Trp-DLys-NH2] (Ac-[d2Nal]RW[dK]-NH2), the “selectivity for the mMC4R over the mMC3R (antagonist)” value in experiment [4] was “more than 150 fold”.

Take `CC(=O)N[C@H](Cc1ccc(I)cc1)C(=O)N[C@@H](CCCNC(=N)N)C(=O)N[C@@H](Cc1c[nH]c2ccccc12)C(=O)N[C@@H](CCCNC(=N)N)C(N)=O` [Peptide 42, Ac-DPhe(pI)-Arg-Trp-Arg-NH2] (Ac-[dPhe(4-I)]RWR-NH2): the “mMC1R partial agonist percentage of receptor activation relative to NDP-MSH” value in experiment [3] stood at 50 % NDP. For the same compound, in experiment [1], the “mMC3R percent maximal stimulatory response (compared to NDP-MSH)” value stood at 25% @100μM. On to `CC(=O)N[C@H](Cc1ccc(I)cc1)C(=O)N[C@H](Cc1ccc2ccccc2c1)C(=O)N[C@@H](Cc1ccc2ccccc2c1)C(=O)N[C@H](CCCCN)C(N)=O` [Peptide 34, Ac-DPhe(pI)-DNal(2’)-Nal(2’)-DLys-NH2] (Ac-[dPhe(4-I)][d2Nal][2Nal][dK]-NH2), for which, in experiment [1], the “mMC3R percent maximal stimulatory response (compared to NDP-MSH)” value amounted to 20% @100μM. Consider `CC(=O)N[C@H](Cc1ccc(I)cc1)C(=O)N[C@H](Cc1ccc2ccccc2c1)C(=O)N[C@@H](Cc1c[nH]c2ccccc12)C(=O)N[C@@H](CCCNC(=N)N)C(N)=O` [Peptide 30, Ac-DPhe(pI)-DNal(2’)-Trp-Arg-NH2], for which, in experiment [2], the “mMC5R EC50” value is “inactive”.
